Reference: EP4332093A1, “SALT CONTAINING PIPERAZINE POLYCYCLIC DERIVATIVE, CRYSTAL FORM THEREOF, PREPARATION METHOD THEREFOR, AND USE THEREOF” (Shanghai Hansoh Biomedical Co., Ltd., priority 2021, dated 2022)
Like-named read-outs stand apart in the source and are kept apart here.

What was measured:
D3 receptor = target: T1, D3 receptor (Homo sapiens, UniProt P35462); assay: cAMP content in cells stably expressing D3 receptors (CHO-D3, forskolin, HTRF); type: cell-based
T1 construct: expressed in transfected cells
T1 sequence (P35462 whole entry): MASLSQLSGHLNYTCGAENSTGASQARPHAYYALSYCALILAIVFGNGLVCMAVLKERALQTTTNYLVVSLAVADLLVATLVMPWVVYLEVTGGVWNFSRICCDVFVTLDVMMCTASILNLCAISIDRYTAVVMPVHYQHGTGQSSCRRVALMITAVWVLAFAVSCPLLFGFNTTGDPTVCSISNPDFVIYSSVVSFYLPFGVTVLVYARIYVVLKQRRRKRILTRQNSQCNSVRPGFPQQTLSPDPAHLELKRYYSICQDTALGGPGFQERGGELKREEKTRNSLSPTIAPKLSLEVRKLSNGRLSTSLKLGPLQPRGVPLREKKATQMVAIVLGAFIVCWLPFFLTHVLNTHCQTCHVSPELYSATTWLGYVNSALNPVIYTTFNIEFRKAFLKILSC

[1] = Pharmacokinetic assay in Balb/c mice (plasma and brain tissue); type: in vivo; settings: male, mouse, po, p.o. 5 mg/kg; for AUC(0-t): read-out: Area under curve AUC0-t; for AUC(0-inf): read-out: Area under curve AUC0-∞; for Tmax: read-out: Peak time tmax; for Cmax: read-out: Plasma concentration Cmax; for MRT: read-out: Average residence time MRT; for half-life: read-out: Half life t1/2 (converted)
In short: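 Fasted male Balb/c mice (12 per group) received 5 mg/kg p.o. in 0.5% CMC-Na/1% Tween80. Plasma and whole brain were collected […]. Compound was quantified by LC/MS/MS after acetonitrile precipitation, with PK parameters from noncompartmental analysis.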

5-HT2A receptor = 5-HT2A receptor (Homo sapiens, UniProt P28223); assay: Calcium ion mobility in cells stably expressing 5-HT2A receptors (Flp-In-CHO-5HT2A, FLIPR); type: cell-based; parameters: expressed in transfected cells; settings: Flp-In-CHO-5HT2A stable pool, 5HT stimulation
Chain of 5-HT2A receptor (P28223 whole entry): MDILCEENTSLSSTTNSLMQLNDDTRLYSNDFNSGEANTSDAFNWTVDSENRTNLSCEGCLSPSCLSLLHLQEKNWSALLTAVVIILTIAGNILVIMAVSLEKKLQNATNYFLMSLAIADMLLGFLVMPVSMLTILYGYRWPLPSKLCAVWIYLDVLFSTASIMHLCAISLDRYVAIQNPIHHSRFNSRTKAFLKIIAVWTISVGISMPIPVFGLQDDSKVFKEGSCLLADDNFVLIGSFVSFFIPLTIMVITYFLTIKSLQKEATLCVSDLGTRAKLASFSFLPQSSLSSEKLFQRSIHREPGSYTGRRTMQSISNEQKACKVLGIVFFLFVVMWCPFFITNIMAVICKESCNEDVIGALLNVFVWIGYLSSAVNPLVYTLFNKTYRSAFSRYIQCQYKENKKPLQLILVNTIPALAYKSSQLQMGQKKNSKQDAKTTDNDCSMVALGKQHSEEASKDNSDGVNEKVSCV

EC50 (D3 receptor) [nM] | AUC(0-t) ([1]; Brain) [ng·h/mL] | AUC(0-inf) ([1]; Brain) [ng·h/mL] | Tmax ([1]; Brain) [h] | Cmax ([1]; Brain) [ng/mL] | AUC(0-t) ([1]; Plasma) [ng·h/mL] | AUC(0-inf) ([1]; Plasma) [ng·h/mL] | MRT ([1]; Plasma) [h] | half-life ([1]; Plasma) [h] | Tmax ([1]; Plasma) [h] | Cmax ([1]; Plasma) [ng/mL] | IC50 (5-HT2A receptor) [nM] | SMILES
1.7 | 4830 | 4880 | 1 | 1200 | 1040 | 1230 | 3.9 | 2.8 | 0.5 | 391 | 5.2 | O=C(NC1CC(CCN2CCN(c3cccc(Cl)c3Cl)CC2)C1)c1ncco1 (stereo not shown) [Example 12, N-(3-(2-(4-(2,3-Dichlorophenyl)piperazin-1-yl)ethyl)cyclobutyl)oxazole-2-carboxamide]
0.7 | 5200 | – | 1 | 1870 | 1620 | 1710 | 2.4 | 1.8 | 0.5 | 715 | 11.6 | O=C(N[C@H]1C[C@@H](CCN2CCN(c3cccc(Cl)c3Cl)CC2)C1)c1ncco1 [Example 12B, N-(Cis-3-(2-(4-(2,3-dichlorophenyl)piperazin-1-yl)ethyl)cyclobutyl)oxazole-2-carbo xamide]
0.6 | 1080 | – | 1 | 321 | 1420 | 1440 | 1.8 | 1.3 | 0.5 | 745 | 3.07 | O=C(N[C@H]1C[C@H](CCN2CCN(c3cccc(Cl)c3Cl)CC2)C1)C1(O)CC1 [Example 6A, N-(Trans-3-(2-(4-(2,3-dichlorophenyl)piperazin-1-yl)ethyl)cyclobutyl)-1-hydroxycy clopropane-1-carboxamide]
1 | 1350 | – | 1 | 179 | 395 | 501 | 5.3 | 3.7 | 1 | 102 | 2.74 | O=C(N[C@H]1C[C@H](CCN2CCN(c3cccc(Cl)c3Cl)CC2)C1)c1nccs1 [Example 7A, N-(Trans-3-(2-(4-(2,3-dichlorophenyl)piperazin-1-yl)ethyl)cyclobutyl)thiazole-2-car boxamide]

More lines, now with the values behind:

SMILES | EC50 (D3 receptor) [nM] | AUC(0-t) ([1]; Brain) [ng·h/mL] | AUC(0-inf) ([1]; Brain) [ng·h/mL] | Tmax ([1]; Brain) [h] | Cmax ([1]; Brain) [ng/mL] | AUC(0-t) ([1]; Plasma) [ng·h/mL] | AUC(0-inf) ([1]; Plasma) [ng·h/mL] | MRT ([1]; Plasma) [h] | half-life ([1]; Plasma) [h] | Tmax ([1]; Plasma) [h] | Cmax ([1]; Plasma) [ng/mL] | IC50 (5-HT2A receptor) [nM]
O=C(N[C@H]1C[C@H](CCN2CCN(c3cccc(Cl)c3Cl)CC2)C1)c1cccc2ncccc12 [Example 19A, N-(Trans-3-(2-(4-(2,3-dichlorophenyl)piperazin-1-yl)ethyl)cyclobutyl)quinoline-5-c arboxamide] | 1.6 | 1240 | – | 1 | 372 | 456 | 471 | 1.8 | 1.7 | 0.5 | 349 | 7.67
O=C(N[C@H]1C[C@H](CCN2CCN(c3cccc(Cl)c3Cl)CC2)C1)c1ncco1 [Example 12A, N-(Trans-3-(2-(4-(2,3-dichlorophenyl)piperazin-1-yl)ethyl)cyclobutyl)oxazole-2-car boxamide] | 0.6 | 8130 | – | 1 | 1760 | 1840 | 1970 | 3.1 | 1.9 | 0.5 | 673 | 2.21
